# Like-named read-outs stand apart in the source and are kept apart here.
# Columns and labels:
# [1] = test system: P. falciparum CQ-sensitive (3D7 strain); assay: anti-HRPII test, P. falciparum blood parasites, CQ-sensitive 3D7 strain; assay type: cell-based; conditions: Plasmodium falciparum
# Excerpt: (§1) A CQ-resistant and mefloquine-sensitive P. falciparum, clone W2 [27] and a CQ-sensitive strain 3D7, were cultivated as described, in human erythrocytes (A^+), in complete medium (RPMI 1640 supplemented with 10% human sera blood group A^+) and tests followed a protocol slightly modified as follows. Human erythrocytes (A^+) and serum blood group A^+ were kindly donated by Center of Hemotherapy and Hemathology of Minas Gerais (HEMOMINAS - http://www.hemominas.mg.gov.br), under the mutual cooperation term number 18/09.
# (§2) The ring-stage parasites sorbitol-synchronized were adjusted for parasitemia and hematocrit, according to the specifications for the test, then distributed in 96-well microtiter plates (Corning, Santa Clara, CA, EUA), previously prepared and containing the diluted compounds in dimethyl sulfoxide (DMSO) (0.02%) aqueous stock solution, in triplicates for each dose. CQ, the standard antimalarial, was tested in parallel each time. The drug activity was determined in relation to parasite cultures in complete medium and no drugs, as described. Parasite growth was measured through the anti-HRPII test in cultures adjusted to 1.5% hematocrit and 0.05% parasitemia, with monoclonal antibodies (MPFM-55A and MPFG-55P) commercially acquired (ICLLAB®, USA) and the TMB chromogen (3,3′,5,5′-Tetramethylbenzidine) from KPL (Gaithersburg, MD, EUA). The reaction was stopped with […] of 1 M sulfuric acid, absorbance read at 450 nm in a spectrophotometer (SpectraMax340PC384, Molecular Devices). Sigmoid dose-response curves were generated with curve-fitting software (Microcal Origin Software 5.0, Inc.), used to determine the 50% inhibitory concentration of the parasite growth (IC50), and activity calculated by comparing growth in drug-exposed cultures and the drug-free control cultures.
# [2] = test system: P. falciparum CQ-resistant (W2 clone); assay: anti-HRPII test, P. falciparum blood parasites, CQ-resistant W2 clone; assay type: cell-based; conditions: Plasmodium falciparum
# Excerpt: as §1, §2
# [3] = test system: normal kidney glomerular cells from green monkey (BGM); assay: Cytotoxicity test (MTT) against BGM cells; assay type: cell-based; conditions: for MDL50 (µg/mL) Mean ± SD: 24 h
# Experimental: The cytotoxicity tests were performed against normal kidney glomerular cells from green monkey (BGM) as follows. The cells were cultured under a 5% CO2 atmosphere, at 37°C, in 75 cm^2 sterile flasks in RPMI 1640 medium supplemented with 10% heat-inactivated fetal calf serum, and 40 mg/L gentamicin. When confluent, the cell monolayer was washed with culture medium, trypsinized, distributed in flat-bottomed 96-well plates (5×10^3 cells/well), and incubated for 18 h at 37°C for cell adherence. The compounds (20 µL) were added to the cell plates, at various concentrations (1000 to1 µg/mL), incubated for 24 h, then received a solution of MTT [3-(4,5-dimethylthiazol-2-yl)-2,5-diphenyltetrazolium bromide] (5 mg/mL; 20 µL/well), followed by another 3 h incubation, to evaluate mitochondrial viability. The supernatants were removed, DMSO added to each well (100 µL), carefully mixed to solubilize the formazan crystals. The optical density was determined at 570 and 630 nm (background) (SpectraMax340PC384, Molecular Devices). Cell viability was expressed as the percentage of the control absorbance in the untreated cells after subtracting the appropriate background. The minimum lethal dose for 50% of the cells (MLD50) was determined and the selectivity index (SI) calculated as the ratio between cytotoxicity and activity.
# [4] = test system: P. berghei CQ-sensitive (NK65); assay: Antimalarial suppressive test against P. berghei in mice; assay type: in vivo, P. berghei in Swiss mice; conditions: for % Reduction of parasitemia, 5th day, Exp.1 / Mean Parasitemia ± SD, 5th day, Exp.1 / % Reduction of parasitemia, 7th day, Exp.1 / Mean Parasitemia ± SD, 7th day, Exp.1 / % Reduction of parasitemia, 5th day, Exp.2 / Mean Parasitemia ± SD, 5th day, Exp.2 / % Reduction of parasitemia, 7th day, Exp.2 / Mean Parasitemia ± SD, 7th day, Exp.2: oral, 3 days; for % Reduction of parasitemia, 5th day, Exp.1 / Mean Parasitemia ± SD, 5th day, Exp.1 / % Reduction of parasitemia, 7th day, Exp.1 / Mean Parasitemia ± SD, 7th day, Exp.1: chloroquine 5 mg/kg, LQB223 100 mg/kg; for % Reduction of parasitemia, 5th day, Exp.1 / % Reduction of parasitemia, 5th day, Exp.2: day 5; for % Reduction of parasitemia, 5th day, Exp.1 / % Reduction of parasitemia, 7th day, Exp.1 / % Reduction of parasitemia, 5th day, Exp.2 / % Reduction of parasitemia, 7th day, Exp.2: versus non-treated mice; for Mean Parasitemia ± SD, 5th day, Exp.1 / Mean Parasitemia ± SD, 5th day, Exp.2: day 5 of infection; for % Reduction of parasitemia, 7th day, Exp.1 / % Reduction of parasitemia, 7th day, Exp.2: day 7; for Mean Parasitemia ± SD, 7th day, Exp.1 / Mean Parasitemia ± SD, 7th day, Exp.2: day 7 of infection; for % Reduction of parasitemia, 5th day, Exp.2 / Mean Parasitemia ± SD, 5th day, Exp.2 / % Reduction of parasitemia, 7th day, Exp.2 / Mean Parasitemia ± SD, 7th day, Exp.2: chloroquine 15 mg/kg, LQB223 50 mg/kg
# Experimental: The antimalarial suppressive test in mice, as previously described, was slightly modified. Briefly, Swiss outbred adult female mice, 20±2 g weight, were inoculated with P. berghei CQ-sensitive (NK65) by intraperitoneal route, 1×10^5 freshly infected red blood cells (iRBC) per animal. Two to 24 h later, the mice were randomly distributed to be submitted to drug treatment by oral route, during three consecutive days, once a day; two control groups were used, one non treated and another treated with CQ (either 5 or 15 mg/kg).
# The molecule LQB223, freshly diluted with 3% DMSO in water immediately before treatment, was given by gavage, in doses of 100 and 50 mg/kg in 200 µL volume per animal. Blood smears were prepared at days fifth and seventh after parasite inoculation, methanol-fixed, stained with Giemsa, and examined microscopically for parasitemia determination. […] Molecules reducing parasitemia by 30% or more were considered active.
# [5] = test system: P. falciparum CQ-sensitive (3D7 strain); conditions: ref [9], [10]; cited from earlier work
# [6] = test system: P. falciparum CQ-resistant (W2 clone); conditions: ref [9], [10]; cited from earlier work
# [7] = CQ-sensitive 3D7, anti-HRPII test, three experiments, ≤10 active, 11–20 partially active, >20 inactive, read-out: IC50 (µg/mL) Mean ± SD, 3D7
# [8] = CQ-resistant W2, anti-HRPII test, three experiments, ≤10 active, 11–20 partially active, >20 inactive, read-out: IC50 (µg/mL) Mean ± SD, W2
# [9] = BGM monkey kidney cells, MTT, minimal lethal dose for 50% of cells
# [10] = W2, CQ-resistant P. falciparum, single curve printed in the picture, read-out: IC50 from dose response curve (Figure 3)
smiles,measurement,setting,value
O=C1C2=C(C(=O)c3ccccc31)[C@H]1Oc3ccccc3[C@H]1CO2 (relative stereo) [LQB118],IC50,[1]; [7],0.16 ± 0.03 µg/mL
same,IC50,[2]; [8],0.17 ± 0.1 µg/mL
same,toxicity to BGM cells,[3],toxic to BGM cells
same,MDL50 (µg/mL) Mean ± SD,[3]; green monkey,≤3.9 µg/mL
Cc1ccc(S(=O)(=O)N2c3ccccc3[C@H]3COC4=C(C(=O)c5ccccc5C4=O)[C@H]32)cc1 (relative stereo) [LQB192],IC50,[1]; [7],3.8 ± 1 µg/mL
same,IC50,[2]; [8],2.9 ± 2.5 µg/mL
same,toxicity to BGM cells,[3]; BGM cells,toxic to BGM cells
same,MDL50 (µg/mL) Mean ± SD,[3]; [9],68.7 ± 8.4 µg/mL
COc1ccc2c(c1)O[C@@H]1C3=C(OC[C@H]21)C(=O)c1ccccc1C3=O (relative stereo) [LQB216],IC50,[1]; [7],0.21 ± 0.09 µg/mL
same,IC50,[2]; [10],0.23 µg/mL
same,IC50,[2]; [8],0.4 ± 0.2 µg/mL
same,MDL50 (µg/mL) Mean ± SD,[3]; [9],24.2 ± 3 µg/mL
COC(=O)c1ccc2c(c1)[C@H]1COC3=C(C(=O)c4ccccc4C3=O)[C@H]1O2 (relative stereo) [LQB221],IC50,[1]; [7],0.25 ± 0.1 µg/mL
same,IC50,[2]; [8],0.63 ± 0.8 µg/mL
same,toxicity to BGM cells,[3]; BGM cells,toxic to BGM cells
same,MDL50 (µg/mL) Mean ± SD,[3]; [9],5.1 µg/mL
COc1cc(C=O)cc2c1O[C@@H]1C3=C(OC[C@H]21)C(=O)c1ccccc1C3=O (relative stereo) [LQB222],IC50,[1]; [7],3.5 ± 0.4 µg/mL
same,IC50,[2]; [8],1.8 ± 1.6 µg/mL
same,toxicity to BGM cells,[3]; BGM cells,toxic to BGM cells
same,MDL50 (µg/mL) Mean ± SD,[3]; [9],≤3.9 µg/mL
Cc1ccc(S(=O)(=O)N2c3ccccc3[C@H]3CCc4ccccc4[C@H]32)cc1 (relative stereo) [LQB223],IC50,[1]; [7],7.8 ± 3 µg/mL
same,"% Reduction of parasitemia, 5th day, Exp.1",[4],67%
same,"Mean Parasitemia ± SD, 5th day, Exp.1",[4],0.15±0.2
same,"% Reduction of parasitemia, 7th day, Exp.1",[4],28%
same,"Mean Parasitemia ± SD, 7th day, Exp.1",[4],11±3
same,"% Reduction of parasitemia, 5th day, Exp.2",[4],30%
same,"Mean Parasitemia ± SD, 5th day, Exp.2",[4],1.2±0.5
same,"% Reduction of parasitemia, 7th day, Exp.2",[4],13%
same,"Mean Parasitemia ± SD, 7th day, Exp.2",[4],18.3±1.5
same,antimalarial activity in vivo,[4]; mice infected with P. berghei,active in vivo
same,IC50,[2]; [10],12.4 µg/mL
same,IC50,[2]; [8],10.2 ± 1.2 µg/mL
same,MDL50 (µg/mL) Mean ± SD,[3]; [9],≥1000 µg/mL
"CCN(CC)CCCC(C)Nc1ccnc2cc(Cl)ccc12 (stereo not drawn) [Chloroquine, chloroquine, reference compound]",IC50,"[1]; 3D7, read-out: IC50 (µg/mL) Mean ± SD, 3D7",0.03 µg/mL
same,"% Reduction of parasitemia, 5th day, Exp.1",[4],100%
same,"Mean Parasitemia ± SD, 5th day, Exp.1",[4],0
same,"% Reduction of parasitemia, 7th day, Exp.1",[4],52%
same,"Mean Parasitemia ± SD, 7th day, Exp.1",[4],7.3±3
same,"% Reduction of parasitemia, 5th day, Exp.2",[4],100%
same,"Mean Parasitemia ± SD, 5th day, Exp.2",[4],0±0.0
same,"% Reduction of parasitemia, 7th day, Exp.2",[4],100%
same,"Mean Parasitemia ± SD, 7th day, Exp.2",[4],0±0.0
same,IC50,"[2]; W2, read-out: IC50 (µg/mL) Mean ± SD, W2",0.138 µg/mL
same,"IC50, 3D7 strain, previous work",[5],0.0035 µg/mL
same,"IC50, W2 clone, previous work",[6],0.07 µg/mL
